From article PMC2990584, “Phase Ib study of CP-868,596, a PDGFR inhibitor, combined with docetaxel with or without axitinib, a VEGFR inhibitor” (British Journal of Cancer, 2010)
One block for each molecule: values may come before it.

Experiments:
[1] = tested on: PDGFR-β overexpressing mesothelioma cell lines; parameters: method as in Wilmink and Richel, 2008; settings: in vitro; ref Wilmink and Richel, 2008; cited from earlier work
advanced solid tumours = experiment: Antitumour activity (RECIST, FDG-PET, CT); type: in vivo, human; settings: single patient, metastatic epithelioid sarcoma
Protocol: Radiological assessments were conducted at screening and within 7 days prior to cycle 1 docetaxel dose for DLs 1–3, and at screening and cycle 2 day 1 for DL 4. Subsequent assessments were every other cycle for all DLs.

tumour vasculature = experiment: DCE-MRI tumoural analysis; type: in vivo, human; settings: DL 2, eight patients
Protocol: The DCE time course in the tumour was analysed on a pixel-by-pixel basis by fitting the data to the Kety equation and by integrating the area under the initial (i.e. the first 90 s) uptake curve. The contrast-agent concentration time course in plasma and tissue was inferred from the change in T1-weighted signal as a function of time. The Kety equation fitted the tissue contrast-agent time course to a two-compartment model: […] Ct are plasma and tissue concentration, respectively, K^trans is volume endothelial transfer constant between plasma and the extracellular extravascular space (EES), and Ve is fractional EES volume ([Ashton et al, 2008]).

xenograft models = tested on: xenograft models; parameters: method as in Whalen et al, 2005; settings: ref Whalen et al, 2005; cited from earlier work
[2] = Pharmacokinetics in patients (HPLC/tandem MS, non-compartmental); type: in vivo, human
Protocol: In DL 4, sampling was conducted on day 8 (CP-868,596, axitinib, and docetaxel) and day 9 (CP-868,596 and axitinib) of cycle 1: samples were collected at 0 h (predose) and 1, 1.75, 3, 4.5, and 6.5 h post-dose on day 8 and at 0 h (predose) on day 9 for CP-868,596 and axitinib. Docetaxel concentrations were assessed at 1 (end of infusion), 1.75, and 6.5 h post-dose on day 8. Concentrations of CP-868,596, docetaxel, and axitinib were determined using validated HPLC/tandem mass spectrometry (HPLC/TMS) methods. Analytes were detected using an Applied-Biosystem Sciex API 3000/4000 LC/TMS system (MDI SCIEX, Concord, ON, Canada) operating in positive ion Electrospray mode. Non-compartmental pharmacokinetic analysis was performed using WinNonlin, version 3.2 (Pharsight, Mountain View, CA, USA). […] Tmax, half-life (t1/2), AUC0–48, and AUC0–infinity. […] Descriptive statistics were used when analysing patient demographics, safety, and tumour response data. Paired t-test was used to assess the impact of co-administration of docetaxel on CP-868,596 pharmacokinetics.

PDGFR-β tyrosine kinase = target: PDGFR-β tyrosine kinase; parameters: method as in Lewis et al, 2009; settings: ref Lewis et al, 2009, cited from earlier work
PDGFR signalling pathway = experiment: Blood biomarkers of the PDGFR signalling pathway (SDS-PAGE, LI-COR); type: in vivo, human
Protocol: Blood samples for the evaluation of biomarkers potentially related to the PDGFR signalling pathway (serum Src homology phosphatase (SHP)2, phopho(p)-SHP2, pAKT, and pS6) were collected within 4 days of baseline and on day 14 in each cohort. Protein levels were analysed using gel electrophoresis (SDS–PAGE) and the LI-COR immunodetection system with appropriate antibodies.

[3] = tested on: patients with advanced cancers; parameters: method as in Lewis et al, 2009; settings: ref Lewis et al, 2009, cited from earlier work
[4] = tested on: patients with advanced solid tumors; parameters: method as in Rugo et al, 2005; settings: ref Rugo et al, 2005; cited from earlier work

Compound: Cc1ccc(NC(=O)c2ccc(CN3CCN(C)CC3)cc2)cc1Nc1nccc(-c2cccnc2)n1 [imatinib]
effect on cells [1]: induced cytotoxicity and apoptosis

pharmacokinetic parameters and plasma concentration profiles on co-administration ([2]; co-administration of docetaxel or docetaxel plus axitinib): unaffected
impact of co-administration of docetaxel on Cmax and AUC0–tau ([2]; human, in vivo): no significant impact
Compound: CC1(COc2ccc3c(c2)ncn3-c2ccc3cccc(N4CCC(N)CC4)c3n2)COC1 [CP-868,596]
FDG-PET response (advanced solid tumours): partial metabolic response
perfused AUC, median percentage change at day 14 relative to baseline (tumour vasculature): −4.4%
perfused K^trans, median percentage change at day 14 relative to baseline (tumour vasculature): 12.7%
tumour volume, median percentage change at day 14 relative to baseline (tumour vasculature): 14.3
vascularised volume, median percentage change at day 14 relative to baseline (tumour vasculature): 16.6
cytotoxicity of docetaxel and gemcitabine on combination (xenograft models): increased
IC50 (PDGFR-β tyrosine kinase; PDGFR-β tyrosine kinase): 0.4 ng ml^–1
selectivity for PDGFR vs other related kinases (PDGFR-β tyrosine kinase): 50–100 fold
SHP and pSHP relative to baseline (PDGFR signalling pathway; day 14, DL 1 and DL 2, n=10): unchanged
levels of pS6 in peripheral blood mononuclear cells relative to baseline (PDGFR signalling pathway; day 14, DL 1 and DL 2, n=11, P=0.021): significantly decreased
levels of pAKT relative to baseline (PDGFR signalling pathway; day 14, DL 1 and DL 2, n=12): non-significant increase
most common toxicities [3]: nausea, vomiting, diarrhoea, and transaminitis
recommended dosage ([3]; single agent, with food): 100 mg twice daily (BID)
Dose-limiting toxicities (DLTs) identified ([3]; single agent): haematuria, transaminitis, insomnia, and nausea/vomiting

Compound: CNC(=O)c1ccccc1Sc1ccc2c(/C=C/c3ccccn3)n[nH]c2c1 [axitinib]
main toxicities [4]: fatigue, nausea, diarrhoea, and hypertension
